Reference: US7799748B2, “Method of selecting benefit agents/oils suitable for reducing surfactant damage” (Conopco, Inc., priority 2005, dated 2010)

Tests used:
[1] = target: BSA protein (Bos taurus, UniProt P02769); assay: Micro-DSC for protein denaturation; parameters: species or system Bovine; conditions: denaturation enthalpy approaching zero, FIG. 5
Description: 1.2% of BSA acetate buffer solution was prepared (pH 5.2, IS 0.02). […] Then the BSA acetate solution was titrated with either oil, or surfactant, or oil/surfactant at 1:1 ratio. After each titration, a DSC measurement was performed.

[2] = target: BSA (Bovine Serum Albumin) (Bos taurus, UniProt P02769); assay: Conductivity test: surfactant binding to BSA protein; conditions: 10% SDS with 10% oil (1:1) or 10% SDS alone; 0.5% BSA in 0.02M acetate buffer pH~5.2, room temperature
BSA (Bovine Serum Albumin), sequence (P02769 25-607): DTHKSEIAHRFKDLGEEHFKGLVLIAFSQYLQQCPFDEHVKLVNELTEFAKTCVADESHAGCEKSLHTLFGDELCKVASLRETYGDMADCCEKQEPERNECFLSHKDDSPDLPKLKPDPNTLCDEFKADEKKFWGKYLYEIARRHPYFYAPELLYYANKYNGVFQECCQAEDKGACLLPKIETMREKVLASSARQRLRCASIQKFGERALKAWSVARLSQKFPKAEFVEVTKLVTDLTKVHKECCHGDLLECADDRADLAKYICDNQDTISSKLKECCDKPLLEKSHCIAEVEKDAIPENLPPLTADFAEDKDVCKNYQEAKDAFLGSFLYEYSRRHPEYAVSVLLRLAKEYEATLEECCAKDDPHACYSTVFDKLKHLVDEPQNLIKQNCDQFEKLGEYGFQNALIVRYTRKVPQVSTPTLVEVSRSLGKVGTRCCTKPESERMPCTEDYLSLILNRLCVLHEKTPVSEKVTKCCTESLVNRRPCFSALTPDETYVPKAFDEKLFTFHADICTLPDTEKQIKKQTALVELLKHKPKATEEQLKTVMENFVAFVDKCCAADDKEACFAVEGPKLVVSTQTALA
Description: Conductance measurements were carried out at room temperature by use of a Thermo conductivity meter, model Orion 150+. Routinely, the titrations were performed by adding a controlled amount of 10% of stock surfactant solution under magnetic stirring into the 0.5% BSA (Bovine Serum Albumin) in 0.02M acetate buffer at pH˜5.2. Values of CMC (critical micellization concentration), CAC (critical aggregation concentration) and protein saturation point (PSP) were defined by the changing of the slope of the conductivity vs. surfactant concentration plots. The number of surfactants binding to each protein can be calculated by: {[PSP]−[CAC]}/{[protein]/Mwprotein}, where [protein] is the protein concentration.
In order to show the effect of benefit agent having different polarity on binding to protein molecule (a reflection of the harshness of surfactant; more surfactant binding to protein equal harsher and more damage expected), applicants tested surfactant binding of (1) surfactant alone and (2) of surfactant in combination with various oils/cosolvents (at 1:1 surfactant to oil ratio) to see level of (how many) surfactants binding per protein molecule (e.g., BSA) at saturation. The tests were done using conductivity test described in protocol and results are set forth below in Table 1.
Applicants conducted same test as in Examples 1 to 10, but used SLES/CAPB surfactant system instead of SDS.

BSA protein, sequence (P02769 25-607): as above

## CCCCCCCCCCCCOS(=O)(=O)[O-].[Na+] [10% SDS (surfactant alone), Sodium dodecyl sulfate]
[1]
  ratio surfactant to protein at which BSA protein is fully denatured at room temperature: about 1.2
[2]
  Saturated binding: No. of surfactant per BSA at saturation: 220
